Assay results reported in paper PMC5706040, “Reclamation of Marine Chitinous Materials for the Production of α-Glucosidase Inhibitors via Microbial Conversion” (Marine Drugs, 2017).

What was measured:
Experiment in all cases: absorbance at […] nm, p-nitrophenol release
[1] = molecular target: T1, Rat intestinal α-glucosidase; format: biochemical; conditions: pNPG substrate, 0.1 mol/L potassium phosphate pH 7, 37 °C, 20 min preincubation, intestinal acetone powder preparation
T1 construct: gene Si; preparation from rat intestinal acetone powder (Sigma Aldrich)

Rice α-glucosidase = molecular target: T2, Rice α-glucosidase; format: biochemical, Oryza sativa; conditions: pNPG substrate, 0.1 mol/L potassium phosphate pH 7, 37 °C, 20 min preincubation, enzyme 1.0 U/mL
T2 construct: gene Os06g0675700; commercial enzyme from rice, type 4 (Sigma Aldrich)

[2] = molecular target: T3, S. cerevisiae α-glucosidase; format: biochemical, Saccharomyces cerevisiae; conditions: pNPG substrate, 0.1 mol/L potassium phosphate pH 7, 37 °C, 20 min preincubation, enzyme 0.25 U/mL
T3 construct: gene MAL12; commercial yeast enzyme (Sigma Aldrich, Singapore)

[3] = molecular target: T4, B. stearothermophilus α-glucosidase; format: biochemical, Geobacillus stearothermophilus; conditions: pNPG substrate, 0.1 mol/L potassium phosphate pH 7, 37 °C, 20 min preincubation, enzyme 0.10 U/mL
T4 construct: gene exo-alpha-1; commercial enzyme (Sigma Aldrich, Singapore)

## C[C@H]1O[C@H](O[C@H]2[C@H](O)[C@@H](O)[C@@H](O[C@H]3[C@H](O)[C@@H](O)C(O)O[C@@H]3CO)O[C@@H]2CO)[C@H](O)[C@@H](O)[C@@H]1N[C@H]1C=C(CO)[C@@H](O)[C@H](O)[C@H]1O (stereo partly shown) [acarbose]
[1]
  Inhibition by Acarbose / IC50: 78 ± 3.2 µg/mL
Rice α-glucosidase
  Inhibition by Acarbose / IC50: 3.04 ± 0.82 µg/mL
[2]
  α-Glucosidase Inhibition / IC50: 1095 ± 93 µg/mL
[3]
  Inhibition by Acarbose / IC50: 0.042 ± 0.003 µg/mL
